Measurements: PMC11645656, “MRGPRX4 mediates phospho-drug associated pruritus in a humanized mouse model” (Science translational medicine, 2024)
Where “and” joins values, the source holds several entries; their conditions need not be identical. Equal values may be shown once.

Experiments:
[1] = system: MRGPRX4-expressing HEK293 cells (Gαq signaling pathway); assay: Pharmacological blocker experiments: phospho-drug evoked calcium response in MRGPRX4-expressing HEK293 cells after inhibitor preincubation; further: test concentration or dose not given here
[2] = system: mock; assay: Calcium mobilization assay (FLIPR), mock-transfected cells (Fig. 3E and 3F); assay type: cell-based

O=C1NC(c2ccccc2)(c2ccccc2)C(=O)N1COP(=O)(O)O [Fosphenytoin]
calcium response trace, fig. S2B ([1]; Time 0.8024 s, + Vehicle): 1
calcium response trace, fig. S2B ([1]; Time 0.8024 s, + YM254890): 1
calcium response trace, fig. S2B ([1]; Time 3.296 s, + YM254890): 1.0086
calcium response trace, fig. S2B ([1]; Time 5.8096 s, + YM254890): 1.014
calcium response trace, fig. S2B ([1]; Time 8.3136 s, + YM254890): 1.012
calcium response trace, fig. S2B ([1]; Time 10.8264 s, + YM254890): 1.017
calcium response trace, fig. S2B ([1]; Time 13.3408 s, + YM254890): 1.0091
calcium response trace, fig. S2B ([1]; Time 15.8536 s, + YM254890): 1.017
calcium response trace, fig. S2B ([1]; Time 18.3672 s, + YM254890): 1.0038
calcium response trace, fig. S2B ([1]; Time 20.8808 s, + YM254890): 1.022 and 1.026
calcium response trace, fig. S2B ([1]; Time 23.3848 s, + YM254890): 1.023 and 1.0316
calcium response trace, fig. S2B ([1]; Time 25.8984 s, + YM254890): 1.028 and 1.035
calcium response trace, fig. S2B ([1]; Time 28.392 s, + YM254890): 1.036 and 1.04
calcium response trace, fig. S2B ([1]; Time 30.8952 s, + YM254890): 1.032 and 1.039
calcium response trace, fig. S2B ([1]; Time 33.3896 s, + YM254890): 1.039 and 1.042
calcium response trace, fig. S2B ([1]; Time 35.8728 s, + YM254890): 1.035 and 1.045
calcium response trace, fig. S2B ([1]; Time 38.3656 s, + YM254890): 1.038 and 1.049
calcium response trace, fig. S2B ([1]; Time 40.86 s, + YM254890): 1.038 and 1.045
calcium response trace, fig. S2B ([1]; Time 43.3632 s, + YM254890): 1.041 and 1.036
calcium response trace, fig. S2B ([1]; Time 45.8664 s, + YM254890): 1.037 and 1.041
calcium response trace, fig. S2B ([1]; Time 48.38 s, + YM254890): 1.051 and 1.044
calcium response trace, fig. S2B ([1]; Time 50.8936 s, + YM254890): 1.041 and 1.044
calcium response trace, fig. S2B ([1]; Time 53.4072 s, + YM254890): 1.038 and 1.0407
calcium response trace, fig. S2B ([1]; Time 55.9112 s, + YM254890): 1.034 and 1.044
calcium response trace, fig. S2B ([1]; Time 58.4248 s, + YM254890): 1.04 and 1.039
calcium response trace, fig. S2B ([1]; Time 60.9288 s, + YM254890): 1.042 and 1.044
calcium response trace, fig. S2B ([1]; Time 63.444 s, + YM254890): 1.04 and 1.035
calcium response trace, fig. S2B ([1]; Time 65.9256 s, + YM254890): 1.037
calcium response trace, fig. S2B ([1]; Time 68.4192 s, + YM254890): 1.036
calcium response trace, fig. S2B ([1]; Time 70.9024 s, + YM254890): 1.036
calcium response trace, fig. S2B ([1]; Time 73.3864 s, + YM254890): 1.029
calcium response trace, fig. S2B ([1]; Time 75.8896 s, + YM254890): 1.034
calcium response trace, fig. S2B ([1]; Time 78.3936 s, + YM254890): 1.032
calcium response trace, fig. S2B ([1]; Time 80.9064 s, + YM254890): 1.03
calcium response trace, fig. S2B ([1]; Time 83.4104 s, + YM254890): 1.032
calcium response trace, fig. S2B ([1]; Time 85.9136 s, + YM254890): 1.031
calcium response trace, fig. S2B ([1]; Time 88.4176 s, + YM254890): 1.027
calcium response trace, fig. S2B ([1]; Time 90.9336 s, + YM254890): 1.025
calcium response trace, fig. S2B ([1]; Time 93.4144 s, + YM254890): 1.031
calcium response trace, fig. S2B ([1]; Time 95.908 s, + YM254890): 1.026
calcium response trace, fig. S2B ([1]; Time 98.4016 s, + YM254890): 1.025
calcium response trace, fig. S2B ([1]; Time 100.895 s, + YM254890): 1.029
calcium response trace, fig. S2B ([1]; Time 103.389 s, + YM254890): 1.027
calcium response trace, fig. S2B ([1]; Time 105.892 s, + YM254890): 1.0264
calcium response trace, fig. S2B ([1]; Time 108.406 s, + YM254890): 1.031
calcium response trace, fig. S2B ([1]; Time 110.9 s, + YM254890): 1.026
calcium response trace, fig. S2B ([1]; Time 113.413 s, + YM254890): 1.02
calcium response trace, fig. S2B ([1]; Time 115.917 s, + YM254890): 1.023
calcium response trace, fig. S2B ([1]; Time 118.43 s, + YM254890): 1.023
calcium response trace, fig. S2B ([1]; Time 120.934 s, + YM254890): 1.021
calcium response trace, fig. S2B ([1]; Time 123.45 s, + YM254890): 1.02
calcium response trace, fig. S2B ([1]; Time 125.93 s, + YM254890): 1.014
calcium response trace, fig. S2B ([1]; Time 128.414 s, + YM254890): 1.021
calcium response trace, fig. S2B ([1]; Time 130.908 s, + YM254890): 1.026
calcium response trace, fig. S2B ([1]; Time 133.402 s, + YM254890): 1.02
calcium response trace, fig. S2B ([1]; Time 135.905 s, + YM254890): 1.011
calcium response trace, fig. S2B ([1]; Time 138.41 s, + YM254890): 1.019
calcium response trace, fig. S2B ([1]; Time 140.942 s, + YM254890): 1.016
calcium response trace, fig. S2B ([1]; Time 143.446 s, + YM254890): 1.018
calcium response trace, fig. S2B ([1]; Time 145.949 s, + YM254890): 1.014
calcium response trace, fig. S2B ([1]; Time 148.465 s, + YM254890): 1.02
calcium response trace, fig. S2B ([1]; Time 150.996 s, + YM254890): 1.016
calcium response trace, fig. S2B ([1]; Time 153.49 s, + YM254890): 1.011
calcium response trace, fig. S2B ([1]; Time 156.003 s, + YM254890): 1.016
calcium response trace, fig. S2B ([1]; Time 158.497 s, + YM254890): 1.014
calcium response trace, fig. S2B ([1]; Time 161 s, + YM254890): 1.008
calcium response trace, fig. S2B ([1]; Time 163.494 s, + YM254890): 1.02
calcium response trace, fig. S2B ([1]; Time 165.987 s, + YM254890): 1.0117
calcium response trace, fig. S2B ([1]; Time 168.481 s, + YM254890): 1.018
calcium response trace, fig. S2B ([1]; Time 170.974 s, + YM254890): 1.011
calcium response trace, fig. S2B ([1]; Time 173.488 s, + YM254890): 1.015
calcium response trace, fig. S2B ([1]; Time 175.991 s, + YM254890): 1.0057
calcium response trace, fig. S2B ([1]; Time 178.505 s, + YM254890): 1.009
calcium response trace, fig. S2B ([1]; Time 181.018 s, + YM254890): 1.011
calcium response trace, fig. S2B ([1]; Time 183.532 s, + YM254890): 1.014
calcium response trace, fig. S2B ([1]; Time 186.036 s, + YM254890): 1.016
calcium response trace, fig. S2B ([1]; Time 188.549 s, + YM254890): 1.014
calcium response trace, fig. S2B ([1]; Time 191.053 s, + YM254890): 1.017
calcium response trace, fig. S2B ([1]; Time 193.556 s, + YM254890): 1.013
calcium response trace, fig. S2B ([1]; Time 196.05 s, + YM254890): 1.011
calcium response trace, fig. S2B ([1]; Time 198.533 s, + YM254890): 1.011

CC(C)c1cccc(C(C)C)c1OCOP(=O)(O)O [Fospropofol]
calcium mobilization response (Fig. 3E and 3F dose-response) ([2]; 5.08e-9 M): 10.7608 and 18.8313 and 12.7088
calcium mobilization response (Fig. 3E and 3F dose-response) ([2]; 1.37e-7 M): 17.7181 and 25.7886 and 28.015
calcium mobilization response (Fig. 3E and 3F dose-response) ([2]; 4.12e-7 M): 16.3266 and 13.822 and 21.6142
calcium mobilization response (Fig. 3E and 3F dose-response) ([2]; 1.23e-6 M): 32.4677 and 38.8684 and 39.425
calcium mobilization response (Fig. 3E and 3F dose-response) ([2]; 3.7e-6 M): 22.4491 and 40.2599 and 25.232
calcium mobilization response (Fig. 3E and 3F dose-response) ([2]; 1.11e-5 M): 30.7979 and 29.963 and 39.7033
calcium mobilization response (Fig. 3E and 3F dose-response) ([2]; 3.33e-5 M): 34.1374 and 32.1894 and 41.0947
calcium mobilization response (Fig. 3E and 3F dose-response) ([2]; 0.0001 M): 28.2933 and 31.0762 and 40.2599
